Reference: patent US20240246963A1, “BIFUNCTIONAL COMPOUNDS AND PHARMACEUTICAL USES THEREOF” (RISEN (SUZHOU) PHARMA TECH CO., LTD., priority 2022, published 2024)

Assays:
[1] = system: GP2D cells (G12D); experiment: Cell proliferation study (Cell Titer Glo, 72 hours), GP2D; format: cell-based
Description: (§1) Aspc-1(Cobioer, CBP60546), GP2D(Cobioer, CBP60683), Mia paca2 (Cobioer, CBP60136), NCI-H358 (Cobioer, CBP60544), H727 (Cobioer, CBP60182), MKN-1 (Cobioer, CBP60486), and PSN1 (Cobioer, CBP61215) cells in exponential growth phase were seeded into a 96-well plate (Greiner, 655090) at density of 3E3/well. Cells were cultured overnight at 37° C. with 5% CO2. On the next day, cells were treated with compound at various concentrations for 72 hours in 37° C., 5% CO2 incubator (final DMSO concentration was 0.1%). After treatment, 100 μL Cell Tier Glo (Promega, G7573) were added to every well on the cell plate and incubated at room temperature (RT) for 10 minutes. Cell growth status was measured with Cell Tier Glo (Promega, G7573) following manufacturer's directions. Inhibition level was calculated according to the following formula: […]
(§2) where the “Maximum Signal” are signal of wells containing DMSO without compound; the “Minimum Signal” are signal of wells recorded at Day 0 prior to commencement of the experiment; and the “Test compound signal” are signal of wells containing compound at established concentrations.
(§3) The inhibition curve was obtained with GraphPad 7.0 software using four-parameter equation.

[2] = system: MKN1 cells (WT); experiment: Cell proliferation study (Cell Titer Glo, 72 hours), MKN1; format: cell-based; details: Homo sapiens, MKN-1
Description: as §1, §2, §3

[3] = system: NCI-H727 cells (G12V); experiment: Cell proliferation study (Cell Titer Glo, 72 hours), NCI-H727; format: cell-based; details: Homo sapiens
Description: as §1, §2, §3

[4] = biological target: T1, RAS G12D protein (Homo sapiens, UniProt P01116, G12D); experiment: Protein degradation study (western blot) in Aspc-1 cells; format: cell-based; details: for DC50: half-maximum degradation concentration on G12D in Aspc-1 cells; for percent protein degradation at 0.005 µM: 0.005 μM compound; for percent protein degradation at 0.05 µM: 0.05 μM compound; for Dmax: ASPC1
T1 construct: host or cells: Aspc-1 (AsPC-1) cells
Description: Aspc-1 (Cobioer, CBP60546) cells in exponential growth phase were inoculated on a 6-well cell culture plate (Corning, 3516) at density of 1E6/well; and cells in the plate were cultured in a 37° C. incubator containing 5%-carbon dioxide. The next day, test compounds were dissolved in DMSO (Sigma, RNBF5902) for the preparation of a 10-mM concentration stock solution. The stock solution was diluted with complete medium (RPMI-1640 supplemented with 10% fetal bovine serum, 1% penicillin-streptomycin), yielding working solutions of various concentrations. The plate, after the addition of compounds, was placed in a 5% carbon dioxide incubator, and incubated at 37° C. for 24 hours (final DMSO concentration was 0.1%). The plate was then removed from the incubator, and the cells were washed twice with precooled PBS (Gibco, 14190250), followed by addition of 80 μL RIPA (CST, 9806S) lysis buffer (containing protease inhibitor (Invitrogen™, AM2696)) to each well. The adherent cells were scraped off with a cell scraper, and the cell lysate was transferred to a 1.5 mL centrifuge tube followed with a 30-minute incubation on ice. The lysate was then clarified with centrifugation at 12000 rpm for 10 min at 4° C. The supernatant was transferred into a new 1.5 mL centrifuge tube, and protein concentration was measured with BCA protein detection kit (Thermo Fisher, 23225). G12D protein level was assessed by western blot. A mixture of cell lysate (40 μL) and loading buffer (10 μL, 5×SDS (Beyotime, P0015L)) was denatured in a water-bath at 95° C. for 10 min. The denatured protein sample, at 30 μg/well, was loaded into a corresponding well of a 4-20% Bis-Tris gel (Kingsley, M00656). Protein samples were initially electrophoresed at 80 V for 30 minutes, followed by 120 V for 40 minutes, until the bromophenol blue strip ran to an appropriate position. After electrophoresis, iBlot2 (Life Technologies, IB21001) was used to transfer the separated samples onto PVDF film. The PVDF membrane was washed with double-distilled water and then blocked in TBST (Thermo Scientific, 28360) buffer containing 5% non-fat milk, for 2 hours. Blocked membrane was rinsed with tris-buffered saline tween-2 (Thermo Scientific, 28360, TBST) three times, 10 minutes each. Membrane was then incubated with 1:1000 diluted RAS Gi2D primary antibody (CST, cat #14429S) overnight at 4° C. Membrane was rinsed in a way described previously followed by 1 hour incubation of secondary antibody at room temperature. After washing the film for three times with TBST, ECL color developing solution was applied, and image was captured with Biorad Chemi Doc gel imager. The band gray value was quantified (Image Lab), and protein degradation level was calculated according to the following formulas:
Level of RAS G12D protein expression=(RAS G12D−compound/β-Actin)−compound/(RAS G12D−DMSO/β-Actin−DMSO)
Level of degradation (%)=(1−Rate of RAS G12D protein expression)×100
Symbols of −, +, ++, +++, ++++, +++++ indicate that the degradation level of Ras protein induced by test compounds was 10% or less, 10 to 30%, 30 to 60%, 60 to 70%, 70 to 75%, and greater than 75%, respectively. “NT” indicates not tested.
“NT” indicates not tested.

[5] = system: PSN-1 cells (G12R); experiment: Cell proliferation study (Cell Titer Glo, 72 hours), PSN-1; format: cell-based; details: Homo sapiens, PSN1
Description: as §1, §2, §3

[6] = system: AsPc-1 cells (G12D); experiment: Cell proliferation study (Cell Titer Glo, 72 hours), AsPc-1; format: cell-based; details: Homo sapiens, ASPC1
Description: as §1, §2, §3

[7] = system: NCI-H358 cells (G12C); experiment: Cell proliferation study (Cell Titer Glo, 72 hours), NCI-H358; format: cell-based; details: Homo sapiens
Description: as §1, §2, §3

[8] = Pharmacokinetics in male ICR mice; format: in vivo; details: mouse, plasma, IV (3 mg/kg)
[9] = ASPC1, 24 h, Aspc-1 cells, 24 hours, read-out: Rate of protein degradation (%)

T1 sequence (P01116 1-188 isoform P01116-2 G12D): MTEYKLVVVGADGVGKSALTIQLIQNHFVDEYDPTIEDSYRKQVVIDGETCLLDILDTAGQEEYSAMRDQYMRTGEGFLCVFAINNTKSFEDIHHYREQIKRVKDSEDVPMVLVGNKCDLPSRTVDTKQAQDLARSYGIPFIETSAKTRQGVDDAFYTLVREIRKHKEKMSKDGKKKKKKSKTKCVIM

Row | SMILES | IC50 [1] [µM] | IC50 [2] [µM] | IC50 [3] [µM] | percent protein degradation at 0.01 µM ([4]; ASPC1, 24 h, 0.010 μM compound, Aspc-1 cells, 24 hours, read-out: Rate of protein degradation (%)) [%] | percent protein degradation at 0.1 µM ([4]; ASPC1, 24 h, 0.1 μM compound, Aspc-1 cells, 24 hours, read-out: Rate of protein degradation (%)) [%] | DC50 [4] [µM] | IC50 [5] [µM] | IC50 [6] [µM] | percent protein degradation at 0.001 µM ([4]; ASPC1, 24 h, 1 nM compound, Aspc-1 cells, 24 hours, read-out: Rate of protein degradation (%)) [%] | percent protein degradation at 0.005 µM [4, 9] [%] | percent protein degradation at 0.05 µM [4, 9] [%] | Dmax ([4]; G12D in Aspc-1 cells) [%] | IC50 [7] [µM] | AUC(0-t) [8] [ng·h/mL] | half-life [8] [h] | DC50 ranking among test compounds ([4]; G12D in Aspc-1 cells)
1 | CCc1c(F)ccc2cc(O)cc(-c3ncc4c(N5CCC[C@@](C)(O)C5)nc(OCC5(CN6CCC(C(=O)N7CCC8(CC7)CC(N7CCC(c9ccc%10c(C%11CCC(=O)NC%11=O)nn(C)c%10c9)CC7)C8)CC6)CC5)nc4c3F)c12 (some centres unmarked) [Compound 85] | 0.242 | 0.405 | 0.00246 | 60 to 70 | 60 to 70 | 0.001 to 0.01 | 0.488 | 0.488 | – | – | – | – | – | – | – | –
2 | CCc1c(F)ccc2cc(O)cc(-c3ncc4c(N5CCC[C@@](C)(O)C5)nc(OCC5(CN6CCC7(CC6)CC(N6CCC(c8ccc9c(c8)CN(C8CCC(=O)NC8=O)C9=O)CC6)C7)CC5)nc4c3F)c12 (some centres unmarked) [Compound 130] | 0.000219 | – | 0.00445 | – | – | < 0.001 | – | 0.0124 | 70 to 75 | 70 to 75 | 30 to 60 | 73 | 0.0648 | – | – | –
3 | CCc1c(F)ccc2cc(O)cc(-c3ncc4c(N5CCC[C@@](C)(O)C5)nc(OCC5(CN6CCC7(CC6)CC(N6CCC(c8ccc9c%10c(cccc8%10)C(=O)N9C8CCC(=O)NC8=O)CC6)C7)CC5)nc4c3F)c12 (some centres unmarked) [Compound 137] | – | – | 0.00046 | – | – | < 0.001 | – | 0.0656 | – | – | – | 62 | 0.438 | 1280 | 7.97 | –
4 | CCc1c(F)ccc2cc(O)cc(-c3ncc4c(N5CCC[C@]6(CCO6)C5)nc(OCC5(CN6CCC7(CC6)CC(N6CCC(c8ccc9c%10c(cccc8%10)C(=O)N9C8CCC(=O)NC8=O)CC6)C7)CC5)nc4c3F)c12 (some centres unmarked) [Compound 179a] | 0.000123 | – | 0.0185 | – | – | < 0.001 | – | 0.0578 | – | > 75 | > 75 | 70 | 0.127 | – | – | lowest DC50 value
5 | C[C@@]1(O)CCCN(c2nc(OCC3(CN4CCC5(CC4)CC(N4CCC(c6ccc7c8c(cccc68)C(=O)N7C6CCC(=O)NC6=O)CC4)C5)CC3)nc3c(F)c(-c4cc(N)cc(Cl)c4C(F)(F)F)ncc23)C1 (some centres unmarked) [Compound 200] | 0.000991 | – | 0.0458 | – | – | – | – | > 1 | – | 70 to 75 | > 75 | – | > 1 | – | – | –
6 | CCc1c(F)ccc2cc(O)cc(-c3ncc4c(N5CCC[C@]6(CCO6)C5)nc(OCC5(CN6CCC7(CC6)CC(N6CCC(c8ccc9c(C%10CCC(=O)NC%10=O)nn(C)c9c8)CC6)C7)CC5)nc4c3F)c12 (some centres unmarked) [Compound 201] | 0.000256 | – | 0.00209 | – | – | < 0.001 | – | 0.00498 | – | > 75 | > 75 | 80 | 0.00992 | – | – | –
7 | CCc1c(F)ccc2cc(O)cc(-c3ncc4c(N5CCC[C@]6(CCO6)C5)nc(OCC5(CN6CCC7(CC6)CC(N6CCC(c8cc9c(cc8F)c(C8CCC(=O)NC8=O)nn9C)CC6)C7)CC5)nc4c3F)c12 (some centres unmarked) [Compound 205] | 0.000289 | – | 0.000309 | – | – | < 0.001 | – | 0.00232 | – | 60 to 70 | > 75 | 78 | 0.00624 | – | – | –
8 | CCc1c(F)ccc2cc(O)cc(-c3ncc4c(N5CCC[C@]6(CCO6)C5)nc(OCC5(CN6CC(C(=O)N7CCC(c8ccc9c(C%10CCC(=O)NC%10=O)nn(C)c9c8)CC7)C6)CC5)nc4c3F)c12 (some centres unmarked) [Compound 207] | 0.00353 | – | – | – | – | – | – | 0.198 | – | 30 to 60 | 60 to 70 | – | – | – | – | –
9 | CCc1c(F)ccc2cc(O)cc(-c3ncc4c(N5CCC[C@]6(CCO6)C5)nc(OCC5(CN6CCC7(CC6)CC(N6CCC(c8ccc9c(=O)n(C%10CCC(=O)NC%10=O)ccc9c8)CC6)C7)CC5)nc4c3F)c12 (some centres unmarked) [Compound 234] | – | – | 0.0044 | – | – | 0.011 to 0.05 | – | 0.0432 | – | 30 to 60 | 70 to 75 | 65 | 0.0179 | – | – | –
10 | CCc1c(F)ccc2cc(O)cc(-c3ncc4c(N5CCC[C@@](C)(O)C5)nc(OCC5(CN6CCC7(CC6)CC(N6CCC(c8cc9c(cc8F)c(N8CCC(=O)NC8=O)nn9C)CC6)C7)CC5)nc4c3F)c12 [Compound 235] | – | – | 0.0008 | – | – | 0.001 to 0.01 | – | 0.0635 | – | 30 to 60 | > 75 | 71 | 0.0103 | – | – | –
11 | CCc1c(F)ccc2cc(O)cc(-c3ncc4c(N5CCC[C@]6(CCO6)C5)nc(OCC5(CN6CCC(CN7Cc8cc9c(cc8C7)C(=O)N(C7CCC(=O)NC7=O)C9=O)CC6)CC5)nc4c3F)c12 (some centres unmarked) [Compound 237] | – | – | – | – | – | – | – | – | – | 10 to 30 | 10 to 30 | – | – | – | – | –
12 | CCc1cccc2cc(O)cc(-c3ncc4c(N5CCC[C@]6(CCO6)C5)nc(OCC5(CN6CCC7(CC6)CC(N6CCC(c8cc9c(cc8F)c(N8CCC(=O)NC8=O)nn9C)CC6)C7)CC5)nc4c3F)c12 [Compound 238] | – | – | – | – | – | 0.011 to 0.05 | – | – | – | > 75 | 30 to 60 | 73 | – | – | – | –
13 | Cn1nc(N2CCC(=O)NC2=O)c2cc(F)c(C3CCN(C4CC5(CCN(CC6(COc7nc(N8CCC[C@]9(CCO9)C8)c8cnc(-c9cc(O)cc%10ccc(F)c(F)c9%10)c(F)c8n7)CC6)CC5)C4)CC3)cc21 [Compound 241] | – | – | – | – | – | 0.011 to 0.05 | – | – | – | 60 to 70 | 30 to 60 | 71 | – | – | – | –
14 | CCc1c(F)ccc2cc(O)cc(-c3ncc4c(N5CCC[C@@](C)(O)C5)nc(OCC5(CN6CCC7(CC6)CC(N6CCC(c8cc9c(cc8F)c(N8CCC(=O)NC8=O)nn9C)C(F)(F)C6)C7)CC5)nc4c3F)c12 (some centres unmarked) [Compound 243] | – | – | – | – | – | 0.001 to 0.01 | – | – | – | 30 to 60 | > 75 | 74 | – | – | – | –
15 | CCc1c(F)ccc2cc(O)cc(-c3ncc4c(N5CCC[C@]6(CCO6)C5)nc(OCC5(CN6CCC(CN7CCC(c8ccc9ccn(C%10CCC(=O)NC%10=O)c(=O)c9c8)CC7)CC6)CC5)nc4c3F)c12 (some centres unmarked) [Compound 244] | – | – | – | – | – | – | – | – | – | 30 to 60 | 30 to 60 | – | – | – | – | –
